Laboratory results from BigSolDB 2.1.

O=c1c(-c2ccc(O)cc2)coc2c([C@@H]3O[C@H](CO)[C@@H](O)[C@H](O)[C@H]3O)c(O)ccc12
in methanol
Conditions | solubility (mole fraction)
293.15 K | 0.00714
303.15 K | 0.00787
313.15 K | 0.00858
323.15 K | 0.00932
333.15 K | 0.0102

Cc1ccc(-c2ncc(Cl)cc2-c2ccc(S(C)(=O)=O)cc2)cn1
298.2 K
Conditions | solubility (mole fraction)
in methanol | 0.0379
in propylene glycol | 0.0605
in water | 1.58e-05

CC(C)C[C@H](CN)CC(=O)O
in water
Conditions | solubility (mole fraction)
283.15 K | 0.00349
298.15 K | 0.00373
308.15 K | 0.00397
315.65 K | 0.00447
323.15 K | 0.00486
328.15 K | 0.00531
338.15 K | 0.00641

O=c1cc(Cl)[nH]c(=O)[nH]1
Conditions | solubility (mole fraction)
in water, 298.15 K | 0.000603

C(=N\Nc1ccccc1)/c1ccco1
Conditions | solubility (mole fraction)
in water, 298.15 K | 5.73e-07

c1ccc(-c2cnc(-c3ccc(-c4ncc(-c5ccccc5)o4)cc3)o2)cc1
298.15 K
Conditions | solubility (mole fraction)
in acetone | 0.00013
in ethanol | 8.43e-06
in water | 7.3e-10

O=C(O)c1ccc(C(=O)O)c(C(=O)O)c1
in acetic acid
Conditions | solubility (mole fraction)
313.2 K | 0.00168
323.2 K | 0.00311
333.2 K | 0.0048
343.2 K | 0.00676
353.2 K | 0.0087
363.2 K | 0.0106

CC1=C(/C=C/C(C)=C/C=C/C(C)=C/C=C/C=C(C)/C=C/C=C(C)/C=C/C2=C(C)CCCC2(C)C)C(C)(C)CCC1
293.15 K
Conditions | solubility (mole fraction)
in 1,2-dimethoxyethane | 6.3e-05
in 1-hexene | 0.000187
in 2-butanone | 9.1e-05
in MTBE | 0.000119
in acetone | 1.4e-05
in cyclohexane | 0.000302
in cyclohexanone | 0.00032
in dibutyl ether | 0.000158
in diglyme | 9.6e-05
in n-hexane | 8.9e-05
in n-octanol | 2.79e-05
in tert-amyl methyl ether | 0.00018
in toluene | 0.00109

Cc1ccccc1C(=O)O
in cyclohexane
Conditions | solubility (mole fraction)
295.45 K | 0.0146
304.95 K | 0.0279
316.65 K | 0.0515
319.4 K | 0.0615
325.2 K | 0.0885
329.35 K | 0.106
333.45 K | 0.138
338.15 K | 0.185

O=C(O)c1ccccc1O
298.15 K
Conditions | solubility (mole fraction)
in 1,4-dioxane | 0.261
in ethanol | 0.145
in ethyl acetate | 0.138
in methanol | 0.122
in water | 0.0003

Conditions | solubility (mole fraction)
in PEG-300, 298.15 K | 0.493

Nc1ccc(S(=O)(=O)Nc2ncccn2)cc1
Conditions | solubility (mole fraction)
in PEG-400, 298.15 K | 0.0129
in PEG-400, 303.15 K | 0.0132
in PEG-400, 308.15 K | 0.0134
in PEG-400, 313.15 K | 0.0136
in PEG-400, 318.15 K | 0.0139

solubility (mole fraction)
Conditions | 293.15 K | 298.15 K | 303.15 K | 308.15 K | 313.15 K
in n-propanol | 3.88e-05 | 4.71e-05 | 5.87e-05 | 7.21e-05 | 9.13e-05
in propylene glycol | – | 0.00047 | – | – | –

C=CC1=C(C(=O)O)N2C(=O)[C@@H](NC(=O)/C(=N\OCC(=O)O)c3csc(N)n3)[C@H]2SC1
in water
Conditions | solubility (mole fraction)
293.15 K | 1.38e-05
298.15 K | 1.65e-05
303.15 K | 2.01e-05
308.15 K | 2.49e-05
313.15 K | 3.14e-05
323.15 K | 4.74e-05
333.15 K | 7.01e-05

CO[C@H]1O[C@H](CO)[C@@H](O)[C@H](O)[C@H]1O
in methanol
Conditions | solubility (mole fraction)
293.15 K | 0.00941
298.15 K | 0.0109
303.15 K | 0.0128
308.18 K | 0.015
313.15 K | 0.0175
318.15 K | 0.02

COc1ccc([C@@H]2CC(=O)c3c(O)cc(O[C@@H]4O[C@H](CO[C@@H]5O[C@@H](C)[C@H](O)[C@@H](O)[C@H]5O)[C@@H](O)[C@H](O)[C@H]4O)cc3O2)cc1O
in n-propanol
Conditions | solubility (mole fraction)
293.15 K | 0.000142
298.15 K | 0.000166
303.15 K | 0.00019
308.15 K | 0.000218
313.15 K | 0.000252
318.15 K | 0.000289
323.15 K | 0.000329
328.15 K | 0.000375
333.15 K | 0.000425

O=C(C(=O)c1ccccc1)c1ccccc1
298.15 K
Conditions | solubility (mole fraction)
in 2,2,4-trimethylpentane | 0.00589
in 4-methyl-2-pentanol | 0.0128
in cyclohexane | 0.0107
in dibutyl ether | 0.0335
in isobutanol | 0.00969
in isopentanol | 0.0128
in isopropanol | 0.00831
in methylcyclohexane | 0.0113
in n-butanol | 0.0131
in n-heptane | 0.00656
in n-hexane | 0.00575
in n-octane | 0.00724
in n-octanol | 0.0169
in n-pentanol | 0.015
in n-propanol | 0.0118
in sec-butanol | 0.011

NCCC(=O)N[C@@H](Cc1cnc[nH]1)C(=O)O
in water
Conditions | solubility (mole fraction)
288.15 K | 0.0217
293.15 K | 0.0224
298.15 K | 0.0236
303.15 K | 0.0249
308.15 K | 0.0265
313.15 K | 0.0287
318.15 K | 0.0301
323.15 K | 0.0324

O=C(O)[C@@H]1C[C@@H](O)CN1
in water
Conditions | solubility (mole fraction)
293.15 K | 0.0483
298.15 K | 0.0499
303.15 K | 0.0525
308.15 K | 0.0551
313.15 K | 0.0585
318.15 K | 0.0614

O=C1c2ccccc2C(=O)N1O
in acetic acid
Conditions | solubility (mole fraction)
293.2 K | 0.00298
303.2 K | 0.00394
313.2 K | 0.00504
323.2 K | 0.00658
333.2 K | 0.00816
343.2 K | 0.0103
353.2 K | 0.0127
363.2 K | 0.0155

CCC1=C(C)CN(C(=O)NCCc2ccc(S(=O)(=O)NC(=O)NC3CCC(C)CC3)cc2)C1=O (stereo not drawn)
in DMAc
Conditions | solubility (mole fraction)
278.15 K | 0.0106
283.15 K | 0.0124
288.15 K | 0.0147
293.15 K | 0.017
298.15 K | 0.0199
303.15 K | 0.0227
308.15 K | 0.0259
313.15 K | 0.0298
318.15 K | 0.0343
